≈ marks a conversion by molar mass, not a printed value.
Columns and labels:
[1] = tested on: carbapenem-resistant Acinetobacter baumannii CR-AB 18-183; assay: MIC by microbroth dilution, CR-AB 18-183; type: cell-based; settings: strain CR-AB 18-183
Procedure: (§1) The minimal inhibitory concentrations (MIC) of the compounds were determined by microbroth dilution method with gentamicin, cefazolin sodium and ceftriaxone sodium as positive control.
(§2) The experimental strains included methicillin-resistant Gram-positive bacteria: methicillin-resistant Straphylococcus aureus MRSA 18-222, 18-575; multiple drug-resistant Gram-negative bacteria: vancomycin-resistant Enterococci VRE 18-80, 18-94, multidrug-resistant Pseudomonas aeruginosa MDR-PA 18-1774, 18-202, carbapenem-resistant Acinetobacter baumannii CR-AB 18-183, 18-560. All the experimental strains were donated by Huashan Hospital affiliated to Fudan University (Institute of antibiotics, Fudan University) and used after routine identification.
(§3) Preparation of MHB medium: 20.0 g MHB medium was added to 1 L distilled water, boiled until completely dissolved, packed in conical bottles and sterilized at 121° C. for 15 min.
(§4) The experimental strain was cultured to the logarithmic growth phase: under aseptic condition, the experimental strain was inoculated into 100 mL MHB medium and incubated in a constant temperature and humidity incubator at 37° C. for 20-22 hours.
(§5) Preparation of storage solution: weighing the sample to be tested, dissolving it with 1% DMSO solution, preparing a storage solution with a concentration of 2560 μg/mL, weighing a positive reference substance, dissolving it with aseptic distilled water, and configuring a storage solution with a concentration of 2560 μg/mL.
(§6) Preparation of bacterial suspension: under aseptic condition, the experimental strains cultured to logarithmic growth phase were adjusted to 0.5 MCF turbidity standard with MHB medium and diluted according to 1:10, and the bacterial suspension with concentration of 10^6 CFU/mL was prepared for standby.
(§7) Dilution of storage solution and inoculation of experimental strain: under aseptic condition, the storage solution was diluted to 256 μg/mL solution. Taking a sterile 96-well plate, adding 200 μL MHB medium to the 12th well, and adding 100 μL MHB medium to each well. Adding 100 μL of positive control solution to the first well, mixing well, and taking 100 μL and discard. Adding 100 μL of the compound sample solution to the second well, mixing well, and then pipetting 100 μL to the third well. After mixing, pipetting 100 μL to the fourth well, and diluting to the 11th well in the same way. Finally, 100 μL was pipetted from the 11th well and discarded. The 12th hole was the growth control without drugs. The concentration of the positive reference substance was 128 μg/mL, the concentrations of the sample solution were 128, 64, […] respectively. Then, 100 μL of the prepared bacterial suspension was added to each well, so that the final concentration of the bacterial liquid in each well was 5×10^5 CFU/mL.
(§8) Incubation: Covering the 96-well plate inoculated with the experimental strains, and incubating in a constant temperature and humidity box at 37° C. for 20-22 hours.

[2] = tested on: vancomycin-resistant Enterococci VRE 18-80; assay: MIC by microbroth dilution, VRE 18-80; type: cell-based; settings: strain VRE 18-80
Procedure: as §1, §2, §3, §4, §5, §6, §7, §8

[3] = tested on: methicillin-resistant Straphylococcus aureus MRSA 18-222; assay: MIC by microbroth dilution, MRSA 18-222; type: cell-based; settings: for Minimum bacteriostatic concentration: strain MRSA 18-222
Procedure: as §1, §2, §3, §4, §5, §6, §7, §8

[4] = tested on: methicillin-resistant Straphylococcus aureus MRSA 18-575; assay: MIC by microbroth dilution, MRSA 18-575; type: cell-based; settings: strain MRSA 18-575
Procedure: as §1, §2, §3, §4, §5, §6, §7, §8

[5] = tested on: vancomycin-resistant Enterococci VRE 18-94; assay: MIC by microbroth dilution, VRE 18-94; type: cell-based; settings: strain VRE 18-94
Procedure: as §1, §2, §3, §4, §5, §6, §7, §8

[6] = tested on: carbapenem-resistant Acinetobacter baumannii CR-AB 18-560; assay: MIC by microbroth dilution, CR-AB 18-560; type: cell-based; settings: strain CR-AB 18-560
Procedure: as §1, §2, §3, §4, §5, §6, §7, §8

[7] = tested on: multidrug-resistant Pseudomonas aeruginosa MDR-PA 18-202; assay: MIC by microbroth dilution, MDR-PA 18-202; type: cell-based; settings: strain MDR-PA 18-202
Procedure: as §1, §2, §3, §4, §5, §6, §7, §8

[8] = tested on: multidrug-resistant Pseudomonas aeruginosa MDR-PA 18-174; assay: MIC by microbroth dilution, MDR-PA 18-174; type: cell-based; settings: for Minimum bacteriostatic concentration: strain MDR-PA 18-174
Procedure: as §1, §2, §3, §4, §5, §6, §7, §8

[9] = DPPH radical scavenging activity assay; settings: for DPPH clearance rate: n = 3
Procedure: The antioxidant activity of the hydroxytyrosol cinnamic acid ester was measured by a DPPH radical scavenging activity assay. 2,2-Diphenyl-1-picryl hydrazyl (DPPH) is an organic compound composed of a stable organic radical. In the DPPH molecule, due to the presence of multiple electron-withdrawing —NO2 and large π bonds of the benzene ring, nitrogen free radical is stabilized. Its methanol solution is purple and has a maximum absorption peak at 517 nm. After the addition of an antioxidant, DPPH captures an electron to be paired with the free electron, and the purple fades and turns into a yellow substance. The absorption at 517 nm disappears, and the degree of fading is quantitatively related to the number of electrons it captures. Based on this principle, a spectrophotometer is used to detect the change of the absorbance of the DPPH radical and the sample solution, and the ability of the sample to provide hydrogen atoms and scavenge free radicals can be measured. measuring exact amount of 2,2-diphenyl-1-picryl hydrazyl (DPPH) and dissolving in toluene to prepare a 0.2 mmoL/L DPPH solution, stored at 0° C. in dark. Vc (positive control), hydroxytyrosol cinnamic acid ester (sample), hydroxytyrosol (control) and cinnamic acid (control). The sample solution was subjected to gradient dilution with toluene, and three sets of controls were separately dissolved in a test tube with a certain amount of toluene to prepare the same concentration gradient as the sample. Sample liquid absorbance measurement: Take 2 mL of sample solution (Table 1 Vc, B, C), add 2 mL of DPPH solution with concentration of 2×10^−4 moL/L, mix and react in the dark at room temperature for 30 min, adjust to zero with toluene, and measure at 517 nm. The absorbance Ai was simultaneously measured for the absorbance Aj of 2 mL of toluene mixed with 2 mL of the sample solution and the absorbance Ao of 2 mL of DPPH solution mixed with 2 mL of toluene (The experimental results are shown in Table 2). Clearance calculation: Clearance Rate (%)=[1−(Ai−Aj)/Ao]*100%

drug-resistant bacteria = assay: Antibacterial activity test, summary over all experimental strains; type: cell-based; settings: text summary of FIGS. 2-3 and Table 4
Procedure: as §1, §2, §3
The experimental strain was cultured to the logarithmic growth phase: under aseptic condition, the experimental strain was inoculated into 100 mL MHB medium and incubated in a constant temperature and humidity incubator at 37° C. for 20-22 hours. […]

Compound | Minimum bacteriostatic concentration [1] [µg/mL] | Minimum bacteriostatic concentration [2] [µg/mL] | Minimum bacteriostatic concentration [3] [µg/mL] | Minimum bacteriostatic concentration [4] [µg/mL] | Minimum bacteriostatic concentration [5] [µg/mL] | Minimum bacteriostatic concentration [6] [µg/mL] | Minimum bacteriostatic concentration [7] [µg/mL] | Minimum bacteriostatic concentration [8] [µg/mL] | DPPH clearance rate ([9]; 1.76 ppm) [%] | DPPH clearance rate ([9]; 8.80 ppm) [%] | DPPH clearance rate ([9]; 21.12 ppm) [%] | DPPH clearance rate ([9]; 42.24 ppm) [%] | DPPH clearance rate ([9]; 79.20 ppm) [%] | DPPH clearance rate ([9]; 112.64 ppm) [%] | DPPH clearance rate ([9]; 281.60 ppm) [%] | DPPH clearance rate ([9]; 492.80 ppm) [%] | DPPH clearance rate ([9]; 792.00 ppm) [%] | DPPH clearance rate ([9]; 915.20 ppm) [%] | further results
Cc1nnc(SCC2=C(C(=O)O)N3C(=O)[C@@H](NC(=O)Cn4cnnn4)[C@H]3SC2)s1 [Cefazolin sodium] | >128 | 32 | >128 | >128 | >128 | >128 | 128 | 8 |  |  |  |  |  |  |  |  |  |  | 
CO/N=C(\C(=O)N[C@@H]1C(=O)N2C(C(=O)O)=C(CSc3nc(=O)c(=O)[nH]n3C)CS[C@H]12)c1csc(N)n1 [Ceftriaxone sodium] | >128 | 8 | >128 | >128 | >128 | >128 | 16 | 128 |  |  |  |  |  |  |  |  |  |  | 
O=C(O)C=Cc1ccccc1 [Cinnamic acid] | >128 | >128 | >128 | >128 | >128 | >128 | >128 | >128 | 6.45 | 8.20 | 14.52 | 20.33 | 31.75 | 38.62 | 54.12 | 59.60 | 70.53 | 71.89 | inhibitory effect on drug-resistant bacteria (drug-resistant bacteria): no inhibitory effect
O=C(/C=C\c1ccccc1)OCCc1ccc(O)c(O)c1 [Hydroxytyrosol cinnamic acid ester, (Z)-3,4-Dihydroxyphenethyl 3-Phenylacrylate] | >128 | >128 | 32 | >128 | >128 | >128 | >128 | 64 | 0.56 | 16.52 | 31.75 | 43.52 | 55.11 | 68.53 | 76.22 | 80.95 | 84.32 | 85.03 | antioxidant activity [9]: excellent antioxidant activity; MIC ([3]; Staphylococcus aureus, multi-drug resistant Straphylococcus aureus MRSA (text summary, strain number not given)): 32 µg/mL (≈ 113 µM); MIC ([8]; multi-drug resistant Pseudomonas aeruginosa MDR-PA (text summary, strain number not given)): 64 µg/mL (≈ 225 µM)
OCCc1ccc(O)c(O)c1 [Hydroxytyrosol] | >128 | >128 | >128 | >128 | >128 | >128 | >128 | >128 |  |  |  |  |  |  |  |  |  |  | inhibitory effect on drug-resistant bacteria (drug-resistant bacteria): no inhibitory effect
O=C1O[C@H]([C@@H](O)CO)C(O)=C1O [Vc] |  |  |  |  |  |  |  |  | 23.16 | 33.47 | 79.63 | 89.55 | 97.42 | 97.53 | 98.29 | 99.06 | 99.10 | 99.28 | 
Gentamicin | >128 | 0.0625 | 128 | 2 | >128 | >128 | 0.0625 | 0.0625 |  |  |  |  |  |  |  |  |  |  | 

Source: patent US11427526B2, “Method of preparing hydroxytyrosol cinnamic acid ester with antioxidant and antibacterial activities” (XI'AN KANGYUANSHENG BIOMEDICAL TECHNOLOGY CO., LTD., priority 2020, dated 2022)
